Measurements from EP4772500A1, “NOVEL ISOXAZOLE COMPOUND AS TM4SF5-SPECIFIC INHIBITOR AND USE THEREOF” (Seoul National University R&DB Foundation, priority 2023, dated 2025).

Experiments:
[1] = system: TM4SF5-expressing cells (SNU449T7); assay: 2D cell growth/proliferation; format: cell-based, human; settings: 2D environment, drug every 24 hours (FIG. 3a)
Method: The drugs treated were the positive control drug TSAHC or the ST-1-025 isoxazole compound at the given concentrations. From the time of starting culture (0 day), (FIG. 3a) in the case of 2D culture, the number of cells was measured after treating with the drug every 24 hours, or (FIG. 3b) in a 3D environment, the proliferation of cells (spheres) was observed and photographed with an optical microscope on the 5th and 7th days after a single drug treatment at the start of culture.

[2] = system: TM4SF5-expressing cells (SNU449T7); assay: Subcutaneous xenograft model of TM4SF5-expressing liver cancer cell line; format: in vivo, BALB/c-Nude mice; settings: for tumor volume / liver cancer formation inhibitory effect: 5 mg/kg IP every 3 days, 8 times; for tumor volume: vs vehicle (FIG. 11c); for liver cancer formation inhibitory effect: images of recovered cancer tissues (FIG. 11b); for expressions of factors related to fibrosis, inflammation-related cytokines/chemokines (CCL2, CCL5, or CCL20), and AFP: cancer tissues vs vehicle (FIG. 11e); for phosphorylation of FAK, STAT3, c-Src, Akt and p27: liver cancer tissue extracts, three days after last injection (FIG. 11d)
Method: The next day, the cells were detached by treating with a T/E (Trypsin/EDTA) solution and centrifuged at 150x g for 3 minutes to obtain a pellet. Thereafter, the supernatant was removed, and the pellet was prepared by resuspension in phosphate buffered saline (PBS). For the generation of liver cancer, 10^7 cells/100 µl were injected once subcutaneously into the right thigh area of 8-week-old male BALB/c-Nude mice. At this time, the animals were anesthetized by inhalation with […] and injected. From the 7th day after the cell injection, drugs ST-2-001, ST-3-006, and ST-3-011 were each intraperitoneally injected at 5 mg/kg of body weight for a total of 8 times every 3 days. The body weight of the animals was measured every week from the day of cell injection, and the tumor volume was measured every 3 days from the 7th day after the cell injection. The tumor volume was calculated as (length×width×width)/2 (mm^3) by measuring the length and width of the tumor. Finally, on the 31st day after the cell injection, the animals were sacrificed by a standard method, and liver tissues were obtained to analyze the liver cancer tissues.
Eight-week-old male BALB/c-Nude mice (n=8, Orient, Seongnam, Republic of Korea) were allowed free access to a normal diet, and TM4SF5-non-expressing cells (SNU449Cp) and TM4SF5-expressing cells (SNU449T7) were injected once subcutaneously at a dose of 10^7 cells per mouse. Starting from the 7th day after the cell injection, drug ST-2-001, ST-3-006, or ST-3-011 was intraperitoneally injected at 5 mg/kg of body weight every 3 days for a total of 8 times. Body weight and tumor volume were measured every week, and on the 31st day after the cell injection, the mice were anesthetized by a standard method, liver tissues were obtained, and the size of the liver cancer tissues was photographed. Thereafter, the tissues were randomly divided into several sets and analyzed by immunohistochemistry, Western blot, qRT-PCR, etc.

[3] = target: T1, PD-L1 (Homo sapiens, UniProt Q9NZQ7); assay: Cholesterol binding to PD-L1; settings: summary statement, cholesterol binding to TM4SF5 and PD-L1
T1 construct: expressed in transfected cells; host or cells: Huh7 cells, transfected; captured on streptavidin agarose
T1 sequence (Q9NZQ7 19-290): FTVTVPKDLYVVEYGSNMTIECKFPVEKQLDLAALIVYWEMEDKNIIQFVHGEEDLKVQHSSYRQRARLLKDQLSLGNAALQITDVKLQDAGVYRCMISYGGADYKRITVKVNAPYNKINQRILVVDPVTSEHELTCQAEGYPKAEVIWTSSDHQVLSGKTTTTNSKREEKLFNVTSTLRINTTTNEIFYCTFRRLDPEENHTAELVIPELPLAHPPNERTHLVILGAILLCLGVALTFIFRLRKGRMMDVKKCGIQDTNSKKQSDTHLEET
Method: (a) Expression vectors for a control vector, TM4SF1, TM4SF5 WT, and R113Q, C118/145A, H127A, and N138A mutants of TM4SF5 were injected into the HEK293FT cell line, which was confirmed not to express TM4SF5, and allowed to express for 48 hours. (b) Huh7KO cell lines, in which TM4SF5 was knocked out in Huh7, were stably infected with a retrovirus encoding pBabe-EV or pBabe-TM4SF5-HA. […] (d) Strep-EV, Strep-PD-L1 WT, and 3NQ (N192/200/219Q) and 4NQ (N35/192/200/219Q) N-glycosylation mutants were injected into Huh7 cells to be expressed. (e) Strep-EV and Strep-TM4SF5 expression vectors were injected into Huh7KO cells and allowed to express for 48 hours. (a-e) After obtaining cell extracts, TM4SF5-strep, TM4SF5-HA, or PD-L1-strep was pulled down with streptavidin agarose resin or anti-HA antibody from extracts containing 0.2, 0.25, or 1.0 mg of protein for each experimental condition. […] Alternatively, they were treated with 1,2-^3H-Cholesterol (50 µM) alone or together with ST-3-001 (negative control compound), ST-5-001, or ST-5-002 (2.5 µM each) for 1 hour (c-e). For the experimental samples of each condition, radioactive isotope values were repeatedly measured using a TriCarb scintillation counter (PerkinElmer, Waltham, MA).

[4] = target: T2, TM4SF5 (Homo sapiens, UniProt O14894); assay: TM4SF5 expression-dependent cell line models (summary statement); format: cell-based; parameters: expressed in transfected cells; captured on streptavidin agarose
T2 sequence (O14894 1-197): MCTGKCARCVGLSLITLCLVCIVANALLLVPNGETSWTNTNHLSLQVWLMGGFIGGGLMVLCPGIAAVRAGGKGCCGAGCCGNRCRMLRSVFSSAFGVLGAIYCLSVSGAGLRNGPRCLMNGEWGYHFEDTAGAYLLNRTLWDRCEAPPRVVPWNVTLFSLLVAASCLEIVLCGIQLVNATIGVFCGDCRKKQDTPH
Source text: (§1) In addition, the isoxazole compounds are capable of reversing both (i) an increase in PD-L1 expression and stabilization through direct binding mediated by TM4SF5 and (ii) induction of PD-1 expression in T cells, which suppresses T-cell activation and cancer cell killing functions.

[5] = target: T2, TM4SF5; assay: TM4SF5 expression-dependent animal models (summary statement); format: in vivo; parameters: expressed in transfected cells; captured on streptavidin agarose
Source text: as §1

Structure (SMILES) | growth or proliferation [1] | tumor volume [2] | liver cancer formation inhibitory effect [2] | expressions of factors related to fibrosis, inflammation-related cytokines/chemokines (CCL2, CCL5, or CCL20), and AFP [2] | phosphorylation of FAK, STAT3, c-Src, Akt and p27 [2] | binding of cholesterol to PD-L1 [3] | concentrations at which effects were exhibited [4] | doses at which effects were exhibited [5]
COc1ccc(-c2cc(-c3ccc(N)cc3)no2)cc1 [ST-1-025, 4-(5-(4-methoxyphenyl)isoxazole-3-yl)aniline] | decreased |  |  |  |  |  |  | 
COc1ccc(-c2cc(-c3ccc(NC(C)=O)cc3)no2)cc1 [ST-2-001, N-(4-(5-(4-methoxyphenyl)isoxazole-3-yl)phenyl)acetamide] |  | statistically significantly inhibited | the greatest | decreased | significantly inhibited |  |  | 
CC(=O)Nc1ccc(-c2cc(-c3ccc(F)cc3)on2)cc1 [ST-3-006, N-(4-(5-(4-fluorophenyl)isoxazole-3-yl)phenyl)acetamide] |  | statistically significantly inhibited | relatively less than those of ST-2-001 | decreased | significantly inhibited |  |  | 
COc1ccc(-c2cc(-c3cccc(NC(C)=O)c3)no2)cc1 [ST-3-011, N-(3-(5-(4-methoxyphenyl)isoxazole-3-yl)phenyl)acetamide] |  | statistically significantly inhibited | relatively less than those of ST-2-001 | decreased | significantly inhibited |  |  | 
CC(=O)Nc1ccc(-c2cc(-c3ccc(O)cc3)no2)cc1 [ST-5-001, N-(4-(3-(4-hydroxyphenyl)isoxazole-5-yl)phenyl)acetamide] |  |  |  |  |  | inhibit | ≤ 1 µM | ≤ 2.5 mpk
Cc1ccc(C(=O)Nc2ccc(-c3cc(-c4ccc(O)cc4)no3)cc2)cc1 [ST-5-002, N-(4-(3-(4-hydroxyphenyl)isoxazole-5-yl)phenyl)-4-methylbenzamide] |  |  |  |  |  | inhibit | ≤ 1 µM | ≤ 2.5 mpk
Cc1ccc(S(=O)(=O)Nc2ccc(C(=O)/C=C/c3ccc(O)cc3)cc2)cc1 [TSAHC, 4'-(p-toluenesulfonylamino)-4-hydroxychalcone, reference compound] | decreased |  |  |  |  |  |  | 
